Assay results published in patent US11440923B2, “Substituted macrocyclic indole derivatives” (Bayer Aktiengesellschaft, priority 2017, dated 2022).
Where a name gives a salt, the structure may show the parent alone. Read-outs that look alike come from different tables or passages of the source.

Experiments:
BCL-XL = BCL-XL (Homo sapiens (Human), UniProt Q07817); test: Protein-protein interaction assay BCL-XL/Bad BH3 peptide (BCL-XL assay, TR-FRET); type: binding; conditions: read-out: BCL-XL Assay IC50 (median)
Outline: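 TR-FRET competition: 1 nM His-tagged human BCL-XL (1-212) versus 1 nM biotin-PEG Bad BH3 peptide tracer, buffer 50 mM Tris pH 7, NaCl, KF, DTT. Compound preincubated with protein 10 min at 22 °C; read after 1 h at 22 °C plus overnight at 4 °C. IC50 by 4-parameter regression of normalized ratios.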

SUDHL5 cells [1] = test: Antiproliferation assay SUDHL5 (Assay 7); type: cell-based
Outline: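 Anti-proliferative effect was measured by CellTiter-Glo ATP luminescence after 72 h compound exposure at 37° C, following overnight plating. IC50s were derived using a parallel time-zero plate and DMSO-treated controls as reference points.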

SUDHL5 cells [2] = test: Induction of caspase-3/7 activity in SUDHL5 cells (Assay 4); type: cell-based
Outline: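 Read-out: Caspase-Glo 3/7 luminescence (1 h, 37 °C) after cells, plated overnight, were treated with compounds for 3 h at 37 °C. Signal corrected for cell-free medium background and expressed relative to DMSO control mean.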

[3] = read-out: Caspase SUDHL5 EC50 (median), caspase-3/7 induction, 3 h
[4] = 72 h, CellTiter-Glo, read-out: Antiproli SUDHL5 IC50 (median)
[5] = caspase-3/7 induction, 3 h, read-out: Caspase SUDHL5 EC50 (median)
[6] = Homo sapiens, SU-DHL-5, 72 h, 72 h, CellTiter-Glo, read-out: Antiproli SUDHL5 IC50 (median)
[7] = Homo sapiens, SU-DHL-5, 3 h, caspase-3/7 induction, 3 h, read-out: Caspase SUDHL5 EC50 (median)
[8] = Homo sapiens, SU-DHL-5, 72 h, read-out: Antiproli SUDHL5 IC50 (median), 72 h, CellTiter-Glo

Sequence of BCL-XL (Q07817 1-212): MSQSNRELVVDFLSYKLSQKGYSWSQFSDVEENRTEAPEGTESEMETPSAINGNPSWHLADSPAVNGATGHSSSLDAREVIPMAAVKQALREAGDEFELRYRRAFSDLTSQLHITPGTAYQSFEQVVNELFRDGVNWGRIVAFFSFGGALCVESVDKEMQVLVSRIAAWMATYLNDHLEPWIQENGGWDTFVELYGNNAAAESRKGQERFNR

CCc1c2c(nn1C)C(CC(C)(C)O)OCCCCn1c(C(=O)O)c(CCCOc3cccc4cc(F)ccc34)c3ccc(Cl)c-2c31 (single isomer, unassigned; enantiomer 21) [Example 54, (−)-4-chloro-3-ethyl-7-{3-[(6-fluoronaphthalen-1-yl)oxy]propyl}-15-(2-hydroxy-2-methylpropyl)-2-methyl-2,10,11,12,13,15-hexahydropyrazolo[4′,3′:9,10][1,6]oxazacycloundecino[8,7,6-hi]indole-8-carboxylic Acid—N-ethylethanamine Salt (Enantiomer 21]
IC50 (BCL-XL): 14.3 µM
IC50 (SUDHL5 cells [1]; read-out: Antiproli SUDHL5 IC50 (median), 72 h, CellTiter-Glo): 13000 nM
EC50 (SUDHL5 cells [2]; [3]): 6500 nM

Cc1c2c(nn1C)C(CCO)OCCCCn1c(C(=O)O)c(CCCOc3cccc4ccccc34)c3ccc(Cl)c-2c31 (single isomer, unassigned; enantiomer 2) [Example 32, (−)-4-chloro-15-(2-hydroxyethyl)-2,3-dimethyl-7-{3-[(naphthalen-1-yl)oxy]propyl}-2,10,11,12,13,15-hexahydropyrazolo[4′,3′:9,10][1,6]oxazacycloundecino[8,7,6-hi]indole-8-carboxylic Acid (Enantiomer 2)]
IC50 (BCL-XL): > 20 µM
IC50 (SUDHL5 cells [1]; [4]): 26000 nM
EC50 (SUDHL5 cells [2]; [5]): > 33000 nM

CCc1c2c(nn1C)C(c1ccccc1)OCCCCn1c(C(=O)O)c(CCCOc3cccc4cc(F)ccc34)c3ccc(Cl)c-2c31 (racemic) [Example 59, (rac)-4-chloro-3-ethyl-7-{3-[(6-fluoronaphthalen-1-yl)oxy]propyl}-2-methyl-(15-rac)-phenyl-2,10,11,12,13,15-hexahydropyrazolo[4′,3′:9,10][1,6]oxazacycloundecino[8,7,6-hi]indole-8-carboxylic Acid]
IC50 (BCL-XL): > 20 µM
IC50 (SUDHL5 cells [1]; [6]): 5100 nM
EC50 (SUDHL5 cells [2]; [7]): 430 nM

Cc1c2c(nn1C)C(CCN1CCOCC1)OCCCCn1c(C(=O)O)c(CCCOc3cccc4cc(F)ccc34)c3ccc(Cl)c-2c31 (racemic) [Example 16, (rac)-4-chloro-7-{3-[(6-fluoronaphthalen-1-yl)oxy]propyl}-2,3-dimethyl-15-[2-(morpholin-4-yl)ethyl]-2,10,11,12,13,15-hexahydropyrazolo[4′,3′:9,10][1,6]oxazacycloundecino[8,7,6-hi]indole-8-carboxylic Acid]
IC50 (BCL-XL): > 20 µM
IC50 (SUDHL5 cells [1]; [6]): 19 nM
EC50 (SUDHL5 cells [2]; [7]): 6.8 nM

CCc1c2c(nn1C)C(CCCN1CCOCC1)OCCCCn1c(C(=O)O)c(CCCOc3cccc4cc(F)ccc34)c3ccc(Cl)c-2c31 (racemic) [Example 65, (rac)-4-chloro-3-ethyl-7-{3-[(6-fluoronaphthalen-1-yl)oxy]propyl}-2-methyl-(15-rac)-[3-(morpholin-4-yl)propyl]-2,10,11,12,13,15-hexahydropyrazolo[4′,3′:9,10][1,6]oxazacycloundecino[8,7,6-hi]indole-8-carboxylic Acid]
IC50 (BCL-XL): > 20 µM
IC50 (SUDHL5 cells [1]; [6]): 490 nM
EC50 (SUDHL5 cells [2]; [7]): 48 nM

Cc1c2c(nn1C)C(C1CC1)OCCCCn1c(C(=O)O)c(CCCOc3cccc4ccccc34)c3ccc(Cl)c-2c31 (single isomer, unassigned; enantiomer 1) [Example 35, (+)-4-chloro-15-cyclopropyl-2,3-dimethyl-7-{3-[(naphthalen-1-yl)oxy]propyl}-2,10,11,12,13,15-hexahydropyrazolo[4′,3′:9,10][1,6]oxazacycloundecino[8,7,6-hi]indole-8-carboxylic Acid N-ethylethanamine Salt (Enantiomer 1)]
IC50 (BCL-XL): > 20 µM
IC50 (SUDHL5 cells [1]; [8]): 2700 nM
EC50 (SUDHL5 cells [2]; [3]): 2100 nM

CCc1c2c(nn1C)C(Cc1ccccc1)OCCCCn1c(C(=O)O)c(CCCOc3cccc4cc(F)ccc34)c3ccc(Cl)c-2c31 (racemic) [Example 92, (rac)-(rac-15)-benzyl-4-chloro-3-ethyl-7-{3-[(6-fluoro-1-naphthyl)oxy]propyl}-2-methyl-2,10,11,12,13,15-hexahydropyrazolo[4′,3′:9,10][1,6]oxazacycloundecino[8,7,6-hi]indole-8-carboxylic Acid]
IC50 (BCL-XL): 13.2 µM
IC50 (SUDHL5 cells [1]; [6]): 1200 nM
EC50 (SUDHL5 cells [2]; [7]): 960 nM

Cc1c2c(nn1C)C(CCN1CCOCC1)OCCCCn1c(C(=O)O)c(CCCOc3cccc4cc(F)ccc34)c3ccc(F)c-2c31 (single isomer, unassigned; enantiomer 1) [Example 20, 4-fluoro-7-{3-[(6-fluoronaphthalen-1-yl)oxy]propyl}-2,3-dimethyl-15-[2-(morpholin-4-yl)ethyl]-2,10,11,12,13,15-hexahydropyrazolo[4′,3′:9,10][1,6]oxazacycloundecino[8,7,6-hi]indole-8-carboxylic Acid—N-ethylethanamine (Enantiomer 1)]
IC50 (BCL-XL): > 20 µM
IC50 (SUDHL5 cells [1]; [8]): 20 nM
EC50 (SUDHL5 cells [2]; Homo sapiens, SU-DHL-5, 3 h, read-out: Caspase SUDHL5 EC50 (median), caspase-3/7 induction, 3 h): 29 nM

CCc1c2c(nn1C)C(C(F)(F)F)OCCCCn1c(C(=O)O)c(CCCOc3cccc4ccccc34)c3ccc(Cl)c-2c31 (racemic) [Example 27, (rac)-4-Chloro-3-ethyl-2-methyl-7-{3-[(naphthalen-1-yl)oxy]propyl}-15-(trifluoromethyl)-2,10,11,12,13,15-hexahydropyrazolo[4′,3′:9,10][1,6]oxazacycloundecino[8,7,6-hi]indole-8-carboxylic Acid]
IC50 (BCL-XL): > 20 µM
IC50 (SUDHL5 cells [1]; [6]): 170 nM
EC50 (SUDHL5 cells [2]; [7]): 3200 nM

CCc1c2c(nn1C)C(CCC(C)(C)O)OCCCCn1c(C(=O)O)c(CCCOc3cccc4cc(F)ccc34)c3ccc(Cl)c-2c31 (racemic) [Example 74, (rac)-4-chloro-3-ethyl-7-{3-[(6-fluoronaphthalen-1-yl)oxy]propyl}-(15-rac)-(3-hydroxy-3-methylbutyl)-2-methyl-2,10,11,12,13,15-hexahydropyrazolo[4′,3′:9,10][1,6]oxazacycloundecino[8,7,6-hi]indole-8-carboxylic Acid]
IC50 (BCL-XL): 13.3 µM
IC50 (SUDHL5 cells [1]; [6]): 67 nM
EC50 (SUDHL5 cells [2]; [7]): 45 nM

CCc1c2c(nn1C)C(CCN1CCOCC1)OCCCCn1c(C(=O)O)c(CCCOc3cccc4cc(F)ccc34)c3ccc(F)c-2c31 (single isomer, unassigned; enantiomer 1) [Example 50, (+)-3-ethyl-4-fluoro-7-{3-[(6-fluoronaphthalen-1-yl)oxy]propyl}-2-methyl-15-[2-(morpholin-4-yl)ethyl]-2,10,11,12,13,15-hexahydropyrazolo[4′,3′:9,10][1,6]oxazacycloundecino[8,7,6-hi]indole-8-carboxylic Acid (Enantiomer 1)]
IC50 (BCL-XL): > 20 µM
IC50 (SUDHL5 cells [1]; [4]): 11 nM
EC50 (SUDHL5 cells [2]; [5]): 13 nM

Cc1c2c(nn1C)C(CCN1CCOCC1)OCCCCn1c(C(=O)O)c(CCCOc3cccc4ccccc34)c3ccc(Cl)c-2c31 (single isomer, unassigned; enantiomer 1) [Example 14, 4-chloro-2,3-dimethyl-15-[2-(morpholin-4-yl)ethyl]-7-{3-[(naphthalen-1-yl)oxy]propyl}-2,10,11,12,13,15-hexahydropyrazolo[4′,3′:9,10][1,6]oxazacycloundecino[8,7,6-hi]indole-8-carboxylic Acid (Enantiomer 1)]
IC50 (BCL-XL): > 20 µM
IC50 (SUDHL5 cells [1]; [4]): 28 nM
EC50 (SUDHL5 cells [2]; [5]): 9.8 nM

CCc1c2c(nn1C)C(CC(C)(C)O)OCCCCn1c(C(=O)O)c(CCCOc3cccc4cc(F)ccc34)c3ccc(Cl)c-2c31 (racemic) [Example 52, (rac)-4-chloro-3-ethyl-7-{3-[(6-fluoronaphthalen-1-yl)oxy]propyl}-(15-rac)-(2-hydroxy-2-methylpropyl)-2-methyl-2,10,11,12,13,15-hexahydropyrazolo[4′,3′:9,10][1,6]oxazacycloundecino[8,7,6-hi]indole-8-carboxylic Acid]
IC50 (BCL-XL): 14.7 µM
IC50 (SUDHL5 cells [1]; [6]): 400 nM
EC50 (SUDHL5 cells [2]; [7]): 420 nM

CCc1c2c(nn1C)C(CCN1CCOCC1)OCCCCn1c(C(=O)O)c(CCCOc3cccc4cc(F)ccc34)c3ccc(F)c-2c31 (racemic) [Example 49, (rac)-3-Ethyl-4-fluoro-7-{3-[(6-fluoronaphthalen-1-yl)oxy]propyl}-2-methyl-(15-rac)-[2-(morpholin-4-yl)ethyl]-2,10,11,12,13,15-hexahydropyrazolo[4′,3′:9,10][1,6]oxazacycloundecino[8,7,6-hi]indole-8-carboxylic Acid]
IC50 (BCL-XL): > 20 µM
IC50 (SUDHL5 cells [1]; [6]): 42 nM
EC50 (SUDHL5 cells [2]; [7]): 33 nM

Cc1c2c(nn1C)C(C1CC1)OCCCCn1c(C(=O)O)c(CCCOc3cccc4ccccc34)c3ccc(Cl)c-2c31 (racemic) [Example 28, (rac)-4-Chloro-15-cyclopropyl-2,3-dimethyl-7-{3-[(naphthalen-1-yl)oxy]propyl}-2,10,11,12,13,15-hexahydropyrazolo[4′,3′:9,10][1,6]oxazacycloundecino[8,7,6-hi]indole-8-carboxylic Acid]
IC50 (BCL-XL): 19.8 µM
IC50 (SUDHL5 cells [1]; [6]): 2700 nM
EC50 (SUDHL5 cells [2]; [7]): 2800 nM
